{"source": "patent EP4389751A1", "about": "“HETEROCYCLIC COMPOUNDS AND USES THEREOF” (Kumquat Biosciences Inc., priority 2021, dated 2024)", "key": {"K-Ras G12S": {"biological_target": "T1, K-Ras G12S (Homo sapiens, UniProt P01116, G12S)", "T1 construct": "made in house; host or cells: E. coli (e.g., BL21 (DE3))", "T1 sequence (P01116 1-188 isoform P01116-2 G12S)": "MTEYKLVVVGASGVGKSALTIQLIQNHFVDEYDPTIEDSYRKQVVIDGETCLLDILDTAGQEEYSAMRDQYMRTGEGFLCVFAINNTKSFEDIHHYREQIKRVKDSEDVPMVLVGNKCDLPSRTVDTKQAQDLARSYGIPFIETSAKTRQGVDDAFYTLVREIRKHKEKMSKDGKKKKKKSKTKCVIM", "assay": "HTRF assay of the K-Ras / SOS1 interaction", "assay_type": "biochemical", "details": "IC50 (against K-Ras G12D) to IC50 (against K-Ras G12S)", "summary_of_the_method": "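GST-K-Ras G12S with anti-GST-Eu donor and His-hSOS1 with anti-6His-XL665 acceptor in ~5 mM HEPES pH 7.4, ~150 mM NaCl, 1 mM DTT, 0.05% BSA, 0.0025% Igepal. Read after ~10 min or longer; IC50 from 665/620 nm ratio, duplicates at 10 µM down to 0.01 µM.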"}, "GP2D cells": {"system": "GP2D cells", "assay": "Cell proliferation assay (CellTiter-Glo), K-Ras G12D cells", "assay_type": "cell-based", "details": "read-out: Inhibition of GP2D Cells (IC50)", "procedure": "ASPC-1 (ATCC CRL-1682), Panc-10.05 (ATCC CRL-2547), A427, and GP2D (Sigma 95090714) cell lines comprise a G12D mutation and can be used to assess Ras cellular signaling in vitro, e.g., in response to the compounds herein. […] ASPC-1 culture medium is prepared with RPMI-1640 and 10% heat-inactivated FBS. Panc-10.05 culture medium is prepared with RPMI-1640, 10 Units/ml human recombinant insulin, and 10% FBS. A427 cell culture is prepared with RPMI-1640 and 10% heat-inactivated FBS. GP2D culture medium is prepared with DMEM with 2mM glutamine and 10% heat-inactivated FBS. A Cell Titer-Glo (CTG) luminescent based assay (Promega) is used to assess growth of the cells, as a measurement of the ability of the compounds herein to inhibit Ras signaling in the cells. The cells (e.g., 800 per well) are seeded in their respective culture medium in standard tissue culture-treated 384-well format plates (Falcon #08-772-116) or ultra-low attachment surface 384-well format plates (S-Bio # MS-9384UZ ). The day after plating, cells are treated with a dilution series (e.g., a 9 point 3-fold dilution series) of the compounds herein (e.g., approximately 40 µl final volume per well). Cell viability can be monitored (e.g., approximately 5 days later) according to the manufacturer's recommended instructions, where the CellTiter-Glo reagent is added (e.g., approximately 10 µl), vigorously mixed, covered, and placed on a plate shaker (e.g., approximately for 20 min) to ensure sufficient cell lysis prior to assessment of luminescent signal. The IC50 values are determined using the four parameter fit. The resulting IC50 value is a measurement of the ability of the compounds herein to reduce cell growth of Ras-driven cells (e.g., tumor cell lines) in vitro and/or in vivo."}}, "note": "pIC50: −log10 of the molar value. Like-named read-outs stand apart in the source and are kept apart here.", "data": [{"smiles": "Nc1nc2c(-c3c(Cl)cc4c(NCCN5CC6CCC(C5)N6C(=O)n5cncn5)nc(OC[C@@]56CCCN5C[C@H](F)C6)nc4c3F)ccc(F)c2s1", "note": "[Compound A168, (3-(2-((7-(2-amino-7-fluorobenzo[d]thiazol-4-yl)-6-chloro-8-fluoro-2-(((2R,7aS)-2-fluorotetrahydro-1H-pyrrolizin-7a(5H)-yl)methoxy)quinazolin-4-yl)amino)ethyl)-3,8-diazabicyclo[3.2.1]octan-8-yl)(1H-1,2,4-triazol-1-yl)methanone]", "values": [{"measurement": "Ratio of IC50 KRAS G12D vs. IC50 KRAS G12S", "setting": "K-Ras G12S", "result": "A (A: indicates that the ratio of IC50 against KrasG12D vs. IC50 against KrasG12S is 1-fold or greater)"}, {"measurement": "pIC50", "setting": "GP2D cells; GP2d", "result": "5.00 to 6.00"}]}, {"smiles": "Nc1nc2c(-c3c(Cl)cc4c(NC5CCN(C(=O)n6cncn6)CC5)nc(OC[C@@]56CCCN5C[C@H](F)C6)nc4c3F)ccc(F)c2s1", "note": "[Compound A187, (4-((7-(2-amino-7-fluorobenzo[d]thiazol-4-yl)-6-chloro-8-fluoro-2-(((2R,7aS)-2-fluorotetrahydro-1H-pyrrolizin-7a(5H)-yl)methoxy)quinazolin-4-yl)amino)piperidin-1-yl)(1H-1,2,4-triazol-1-yl)methanone]", "values": [{"measurement": "Ratio of IC50 KRAS G12D vs. IC50 KRAS G12S", "setting": "K-Ras G12S", "result": "A (A: indicates that the ratio of IC50 against KrasG12D vs. IC50 against KrasG12S is 1-fold or greater)"}, {"measurement": "pIC50", "setting": "GP2D cells; GP2D cells (K-Ras G12D)", "result": "5.00 to 6.00"}]}, {"smiles": "N#Cc1ccn(C(=O)N2C3CCC2CN(c2nc(OC[C@@]45CCCN4C[C@H](F)C5)nc4c(F)c(-c5ccc(F)c6sc(N)nc56)c(Cl)cc24)C3)c1", "note": "[Compound A188, 1-(3-(7-(2-amino-7-fluorobenzo[d]thiazol-4-yl)-6-chloro-8-fluoro-2-(((2R,7aS)-2-fluorotetrahydro-1H-pyrrolizin-7a(5H)-yl)methoxy)quinazolin-4-yl)-3,8-diazabicyclo[3.2. 1]octane-8-carbonyl)-1H-pyrrole-3-carbonitrile]", "values": [{"measurement": "Ratio of IC50 KRAS G12D vs. IC50 KRAS G12S", "setting": "K-Ras G12S", "result": "A (A: indicates that the ratio of IC50 against KrasG12D vs. IC50 against KrasG12S is 1-fold or greater)"}, {"measurement": "pIC50", "setting": "GP2D cells; GP2d", "result": "≥ 6.00"}]}, {"smiles": "Nc1nc2c(-c3c(Cl)cc4c(NC5CCN(C(=O)n6cnc(F)c6)CC5)nc(OC[C@@]56CCCN5C[C@H](F)C6)nc4c3F)ccc(F)c2s1", "note": "[Compound A193, (4-((7-(2-amino-7-fluorobenzo[d]thiazol-4-yl)-6-chloro-8-fluoro-2-(((2R,7aS)-2-fluorotetrahydro-1H-pyrrolizin-7a(5H)-yl)methoxy)quinazolin-4-yl)amino)piperidin-1-yl)(4-fluoro-1H-imidazol-1-yl)methanone]", "values": [{"measurement": "Ratio of IC50 KRAS G12D vs. IC50 KRAS G12S", "setting": "K-Ras G12S", "result": "A (A: indicates that the ratio of IC50 against KrasG12D vs. IC50 against KrasG12S is 1-fold or greater)"}, {"measurement": "pIC50", "setting": "GP2D cells; GP2D cells (K-Ras G12D)", "result": "5.00 to 6.00"}]}, {"smiles": "Cc1cnn(C(=O)N2CCN(c3nc(OC[C@@]45CCCN4C[C@H](F)C5)nc4c(F)c(-c5ccc(F)c6sc(N)nc56)c(Cl)cc34)CC(F)(F)C2)c1", "note": "[Compound A203, (4-(7-(2-amino-7-fluorobenzo[d]thiazol-4-yl)-6-chloro-8-fluoro-2-(((2R,7aS)-2-fluorotetrahydro-1H-pyrrolizin-7a(5H)-yl)methoxy)quinazolm-4-yl)-6,6-difluoro-1,4-diazepan-1-yl)(4-methyl-1H-pyrazol-1-yl)methanone]", "values": [{"measurement": "Ratio of IC50 KRAS G12D vs. IC50 KRAS G12S", "setting": "K-Ras G12S", "result": "A (A: indicates that the ratio of IC50 against KrasG12D vs. IC50 against KrasG12S is 1-fold or greater)"}, {"measurement": "pIC50", "setting": "GP2D cells; GP2D cells (K-Ras G12D)", "result": "5.00 to 6.00"}]}, {"smiles": "N#Cc1c(N)sc2c(F)ccc(-c3ncc4c(N5CC6CCC(C5)N6C(=O)n5cncn5)nc(OC[C@@]56CCCN5C[C@H](F)C6)nc4c3F)c12", "note": "[Compound A206, 4-(4-(8-(1H-1,2,4-triazole-1-carbonyl)-3,8-diazabicyclo[3.2.1]octan-3-yl)-8-fluoro-2-(((2R,7aS)-2-fluorotetrahydro-1H-pyrrolizin-7a(5H)-yl)methoxy)pyrido[4,3-d]pyrimidin-7-yl)-2-amino-7-fluorobenzo[b]thiophene-3-carbonitrile]", "values": [{"measurement": "Ratio of IC50 KRAS G12D vs. IC50 KRAS G12S", "setting": "K-Ras G12S", "result": "A (A: indicates that the ratio of IC50 against KrasG12D vs. IC50 against KrasG12S is 1-fold or greater)"}, {"measurement": "pIC50", "setting": "GP2D cells; GP2D cells (K-Ras G12D)", "result": "≥ 6.00"}]}, {"smiles": "Nc1nc2c(-c3c(Cl)cc4c(NC5CC6(C5)CN(C(=O)n5cncn5)C6)nc(OC[C@@]56CCCN5C[C@H](F)C6)nc4c3F)ccc(F)c2s1", "note": "[Compound A211, (6-((7-(2-amino-7-fluorobenzo[d]thiazol-4-yl)-6-chloro-8-fluoro-2-(((2R,7aS)-2-fluorotetrahydro-1H-pyrrolizin-7a(5H)-yl)methoxy)quinazolin-4-yl)amino)-2-azaspiro[3.3]heptan-2-yl)(1H-1,2,4-triazol-1-yl)methanone]", "values": [{"measurement": "Ratio of IC50 KRAS G12D vs. IC50 KRAS G12S", "setting": "K-Ras G12S", "result": "A (A: indicates that the ratio of IC50 against KrasG12D vs. IC50 against KrasG12S is 1-fold or greater)"}, {"measurement": "pIC50", "setting": "GP2D cells; GP2D cells (K-Ras G12D)", "result": "5.00 to 6.00"}]}, {"smiles": "Nc1nc2c(-c3c(Cl)cc4c(NC5CCN(C(=O)n6ccc(F)n6)CC5)nc(OC[C@@]56CCCN5C[C@H](F)C6)nc4c3F)ccc(F)c2s1", "note": "[Compound A222, (4-((7-(2-amino-7-fluorobenzo[d]thiazol-4-yl)-6-chloro-8-fluoro-2-(((2R,7aS)-2-fluorotetrahydro-1H-pyrrolizin-7a(5H)-yl)methoxy)quinazolin-4-yl)amino)piperidin-1-yl)(3-fluoro-1H-pyrazol-1-yl)methanone]", "values": [{"measurement": "Ratio of IC50 KRAS G12D vs. IC50 KRAS G12S", "setting": "K-Ras G12S", "result": "A (A: indicates that the ratio of IC50 against KrasG12D vs. IC50 against KrasG12S is 1-fold or greater)"}, {"measurement": "pIC50", "setting": "GP2D cells; GP2D cells (K-Ras G12D)", "result": "5.00 to 6.00"}]}, {"smiles": "C#Cc1c(F)ccc2cc(O)cc(-c3ncc4c(N5C6COCC5CN(C(=O)n5cc(C#N)cn5)C6)nc(OC[C@@]56CCCN5C[C@H](F)C6)nc4c3F)c12", "note": "[Compound A226, 1-(9-(7-(8-ethynyl-7-fluoro-3-hydroxynaphthalen-1-yl)-8-fluoro-2-(((2R,7aS)-2-fluorotetrahydro-1H-pyrrolizin-7a(5H)-yl)methoxy)pyrido[4,3-d]pyrimidin-4-yl)-3-oxa-7,9-diazabicyclo[3.3.1]nonane-7-carbonyl)-1H-pyrazole-4-carbonitrile]", "values": [{"measurement": "Ratio of IC50 KRAS G12D vs. IC50 KRAS G12S", "setting": "K-Ras G12S", "result": "A (A: indicates that the ratio of IC50 against KrasG12D vs. IC50 against KrasG12S is 1-fold or greater)"}, {"measurement": "pIC50", "setting": "GP2D cells; GP2D cells (K-Ras G12D)", "result": "5.00 to 6.00"}]}, {"smiles": "N#Cc1c(N)sc2c(F)ccc(-c3c(Cl)cc4c(C5C[C@H]6CC[C@@H](C5)N6C(=O)n5cncn5)nc(OC[C@@]56CCCN5C[C@H](F)C6)nc4c3F)c12", "note": "(stereo partly drawn) [Compound A235, 4-(4-((1R,5S)-8-(1H-1,2,4-triazole-1-carbonyl)-8-azabicyclo[3.2.1]octan-3-yl)-6-chloro-8-fluoro-2-(((2R,7aS)-2-fluorotetrahydro-1H-pyrrolizin-7a(5H)-yl)methoxy)quinazolin-7-yl)-2-amino-7-fluorobenzo[b]thiophene-3-carbonitrile]", "values": [{"measurement": "Ratio of IC50 KRAS G12D vs. IC50 KRAS G12S", "setting": "K-Ras G12S", "result": "A (A: indicates that the ratio of IC50 against KrasG12D vs. IC50 against KrasG12S is 1-fold or greater)"}, {"measurement": "pIC50", "setting": "GP2D cells; GP2D cells (K-Ras G12D)", "result": "5.00 to 6.00"}]}, {"smiles": "N#Cc1nccn1C(=O)N1CC2CCC(C1)N2c1nc(OC[C@@]23CCCN2C[C@H](F)C3)nc2c(F)c(-c3ccc(F)c4sc(N)nc34)c(Cl)cc12", "note": "[Compound A238, 1-(8-(7-(2-amino-7-fluorobenzo[d]thiazol-4-yl)-6-chloro-8-fluoro-2-(((2R,7aS)-2-fluorotetrahydro-1H-pyrrolizin-7a(5H)-yl)methoxy)quinazolm-4-yl)-3,8-diazabicyclo[3.2. 1]octane-3-carbonyl)-1H-imidazole-2-carbonitrile]", "values": [{"measurement": "Ratio of IC50 KRAS G12D vs. IC50 KRAS G12S", "setting": "K-Ras G12S", "result": "A (A: indicates that the ratio of IC50 against KrasG12D vs. IC50 against KrasG12S is 1-fold or greater)"}, {"measurement": "pIC50", "setting": "GP2D cells; GP2D cells (K-Ras G12D)", "result": "≥ 6.00"}]}]}
